Values after ≈ are worked out from the molar mass of the structure shown. Numbered stars: 1 amine (or outer) side, 2 acyl side, 3 side chain; on linkers, the order of the positions; unused ones are H or OH. Bridge positions count the residues as written; N and C are the ends. Square brackets hold non-standard residues; d marks the D form. Peptide text beside a SMILES is read from it. * marks the point of attachment. hTyr(3S-OH,4S-OH,3'-OSO3H) = N[C@H](C(=O)O)[C@H](O)[C@@H](O)c1ccc(O)c(OS(=O)(=O)O)c1; pTerphenylCO(4''-OnC5H11) = CCCCCOc1ccc(-c2ccc(-c3ccc(C(=O)*)cc3)cc2)cc1; Orn(4R-OH,5R-OH) = O=C([C@H](C[C@@H](O)[C@@H](O)N[*:3])N[*:1])[*:2]; hTyr(3S-OH,4S-OH) = N[C@H](C(=O)O)[C@H](O)[C@@H](O)c1ccc(O)cc1; Pro(3S-OH,4S-Me) = C[C@H]1CN[C@H](C(=O)O)[C@H]1O; X1 = CCCCCOc1ccc(-c2cc(-c3ccc(C(=O)*)cc3)no2)cc1; Gln(3R-OH) = NC(=O)C[C@@H](O)[C@H](N)C(=O)O; Hyp = O=C(O)[C@@H]1C[C@@H](O)CN1
Tests used:
C. glabrata isolates = assay: Susceptibility profiles of C. glabrata clinical isolates; format: cell-based
Source text: 168 C. glabrata isolates are collected from blood or other sterile sites in our repository. 11 clinical isolates are selected that display various susceptibility profiles against anidulafungin, caspofungin, and micafungin, and/or harbor mutant or wild-type FKS genes (Table 1). Additionally, 29 isolates are picked that are susceptible to all three echinocandins and harbor wild-type FKS genes. These 40 clinical isolates undergo CD101 susceptibility testing according to the CLSI broth microdilution reference methods. Stock solutions are prepared in DMSO. […] MICs are determined visually after 24-h of incubation. C. krusei ATCC 6258 and C. parapsilosis ATCC 22019 are included for quality controls.

[1] = MALDI-MSI drug distribution in infected liver, mouse model of intra-abdominal candidiasis; format: in vivo; settings: single dose 5 mg/kg
Description: (§1) A mouse model of IAC was used for this study. Female six to eight week old CD1 mice (Charles River Laboratories) weighing 18-22 g were infected intraperitoneally (IP) with 1×10^7 CFU of C. albicans SC5314 mixed with sterile stool matrix as previously described. […] Mice were sacrificed just before antifungal treatment (n=1), and at 1, 3, 6, 24, and 48 hours post-dose (three mice per group per time point). Livers and kidneys were explored for abscesses >1 mm in diameter, dissected, placed on a cryohistology tray, and snap-frozen in liquid nitrogen and stored at −80° C. for tissue sectioning for MALDI imaging.
(§2) In a further experiment, a low dose of CD101 at 5 mg/kg was administered and micafungin was given at the same dose. Liver and kidney samples were collected at 6 hours and 24 hours post-dose for both MALDI imaging and absolute drug quantification.
(§3) In another separate experiment that aimed at comparing therapeutic level of single dose CD101 and multiple doses of micafungin, a single dose of CD101 at 20 mg/kg was given at day three post-inoculation, and once daily treatment of micafungin at 5 mg/kg starting from day three post-inoculation and a total of three doses of micafungin was administered. Livers and kidneys were collected at 48 hours and 72 hours post first dose of each drug.
Tissues were sectioned at 12 μm thickness using a Leica CM1850 cryostat (Buffalo Grove, Ill.) and mounted onto stainless steel slides (for MALDI-MSI analysis) or frosted glass microscope slides (for H&E staining). Tissue sections were stored at −80° C. until analysis. Prior to MALDI-MSI analysis, tissue sections were thawed and applied with ionization matrix. For CD101, 2,5-dihydroxybenzoic acid (DHB) (20 mg/ml in 50% methanol) containing 267 fmol/μl CD101-D9 (Cidara Therapeutics, Inc) was applied to the surface using a HTX TM sprayer (Chapel Hill, N.C.) operating with 50 μL/min flow rate, 60° C. nozzle temperature and 5 p.s.i. Twenty-five passes over the tissue were performed. For micafungin, 1,5-diaminonaphthalene (1,5-DAN) matrix (5 mg/ml in 50% acetone) containing 5 nmol/μl ^13C6-micafungin (Alsachim, France) was coated onto tissue surface by the TM-sprayer at flow rate of 60 μl/min, 50° C. nozzle temperature and 5 p.s.i. […]
MALDI-MSI analysis was performed using a MALDI LTQ Orbitrap XL mass spectrometer (Thermo Fisher Scientific, Bremen, Germany) with a resolution of 60,000 at m/z 400, full width at half maximum. […] Standards of CD101 and micafungin were analyzed both direct from the stainless steel target plate and spiked into drug-naïve liver tissue to optimize instrument parameters. Limit of detection (LOD) for MALDI-MSI analysis of micafungin and CD101 was 500 ng/g and 1 μg/g of liver or kidney tissue respectively, calculated as described. […]

[2] = Laser-capture microdissection and LC/MS-MS drug quantification in liver lesions and surrounding tissue, mouse IAC model; format: in vivo; settings: for concentration at 24 h / concentration at 6 h: female, CD1, mouse, in vivo, 5 mg/kg; for concentration at 6 h: 6 hours post-dose
Description: as §1, §2, §3
Laser-capture microdissection. Necrotic lesion and surrounding tissue areas totaling two to […] were dissected from between three and six serial liver or kidney biopsy tissue sections using a Leica LMD6500 system (Buffalo Grove, Ill.). Lesion areas were identified optically from the brightfield image scan and by comparison to the adjacently-sectioned H&E reference tissue. Pooled dissected lesion tissues were collected into 0.25 ml standard PCR tubes and immediately transferred to the −80° C. freezer for storage.
Prior to analysis, the tubes were thawed at room temperature for 30 minutes. 50 μl of extraction solution (ACN/MeOH (1/1) with 100 ng/ml CD101-D9 and 100 ng/ml ^13C6-micafungin) was added to each tube, which were then sonicated for five min and centrifuged at 10000 RPM for five min at room temperature. 40 μl of supernatant was transferred for LC/MS-MS analysis and diluted with an additional 40 μl of MilliQ water.
Neat 1 mg/ml DMSO stocks for all compounds were serial diluted in 50/50 acetonitrile water to create standard curves and quality control spiking solutions. 3 μl of neat spiking solutions were added to 2 μl of lesion homogenate and extraction was performed by adding 50 μl of extraction solution (ACN/MeOH (1/1) with 100 ng/ml CD101-D9 and 100 ng/ml ^13C6-micafungin). Extracts were vortexed for five minutes and centrifuged at 10000 RPM for five min. A 40 μl of supernatant was transferred for LC/MS-MS analysis and diluted with an additional 40 μl of MilliQ water. Previously optimized LC/MS-MS parameters were used for analysis (see LC/MS-MS section).
LC-MS analysis was performed on a Q Exactive high resolution mass spectrometer (Thermo Fisher Scientific, Waltham, Mass.) coupled to a Thermo Scientific Dionex UltiMate 3000 binary system. Chromatography was performed with a Kinetex C18 column (2.1×50 mm; particle size 1.7 μm, Phenomenex, Torrance, Calif.) using a reverse phase gradient elution, ACN:H2O (60:40) and 10 mM ammonium acetate for mobile phase A and IPA:ACN:MeOH (80:10:10) and 10 mM ammonium acetate for mobile phase B. A flow rate of 300 μl/min was used, with a gradient consisting of 20% B held for 0.5 min, followed by linear increase to 95% in 3.5 min, held for 2.2 min and return to the initial 20% B in 0.3 min. The column was equilibrated for 1.5 min before the next injection, and the temperature of column and sample tray were held at 50 and 4° C., respectively. The column retention time for CD101 and micafungin was 3.32 min and 3.2 min respectively.
Key MS parameters were as follow: the spray voltage, 3.5 kV; capillary temperature, 320° C.; HESI probe temperature, 400° C.; S-lens RF level, 50. […]

[3] = Serum drug levels after single dose in mice; format: in vivo; settings: mouse, single dose 5 mg/kg, read-out: serum drug level
C. albicans = assay: Minimum inhibitory concentration (MIC), IAC study strain; format: cell-based; settings: Candida albicans
Description: As used herein, the term “minimum inhibitory concentration” or “MIC” refers to the concentration of an antifungal agent at which 50% to 100% growth inhibition of a fungus is achieved relative to a positive growth control. The method of establishing MIC will vary depending on the specific compound tested. For example, for echinocandins (e.g., CD101), MIC endpoints are determined after 24 hours incubation and correspond with the lowest drug concentration to produce a prominent decrease in turbidity (e.g., an approximately 50% reduction in growth relative to the drug-free growth control). For additional methods of determining the MIC of antifungal agents, see CLSI—Reference method for broth dilution antifungal susceptibility testing of yeasts; Approved-standard—Third Edition. CLSI document M27-A3. Wayne, Pa.: Clinical and Laboratory Standards Institute, 2008.

C. glabrata BG2 = assay: MIC against C. glabrata BG2; format: cell-based; settings: Nakaseomyces glabratus; C. glabrata BG2, wild-type FKS genes
[4] = tested on: wildtype strains of C. albicans; settings: cited from earlier work
[5] = tested on: wildtype strains of C. glabrata; settings: cited from earlier work

| Compound | susceptibility profile, value (C. glabrata isolates; Isolate 1, FKS R653I) | susceptibility profile, value (C. glabrata isolates; Isolate 2, FKS Wild-type) | susceptibility profile, value (C. glabrata isolates; Isolate 3, FKS F659L) | susceptibility profile, value (C. glabrata isolates; Isolate 4, FKS F659S) | susceptibility profile, value (C. glabrata isolates; Isolate 5, FKS R636S) | susceptibility profile, value (C. glabrata isolates; Isolate 6, FKS F659del) | susceptibility profile, value (C. glabrata isolates; Isolate 7, FKS S663P) | susceptibility profile, value (C. glabrata isolates; Isolate 8, FKS S663P) | susceptibility profile, value (C. glabrata isolates; Isolate 9, FKS D632Y) | susceptibility profile, value (C. glabrata isolates; Isolate 10, FKS D632Y) | susceptibility profile, value (C. glabrata isolates; Isolate 11, FKS F659del) | also measured |
| --- | --- | --- | --- | --- | --- | --- | --- | --- | --- | --- | --- | --- |
| CCCCCOc1ccc(-c2ccc(-c3ccc(C(=O)N[C@H]4C[C@@H](O)[C@@H](O)NC(=O)[C@@H]5[C@@H](O)[C@@H](C)CN5C(=O)[C@H]([C@@H](C)O)NC(=O)[C@H]([C@H](O)[C@@H](O)c5ccc(O)cc5)NC(=O)[C@@H]5C[C@@H](O)CN5C(=O)[C@H]([C@@H](C)O)NC4=O)cc3)cc2)cc1 [Anidulafungin, anidulafungin] ({pTerphenylCO(4''-OnC5H11)}-[Orn(4R-OH,5R-OH)]T[Hyp][hTyr(3S-OH,4S-OH)]T[Pro(3S-OH,4S-Me)]; lactam 1-C) | 0.015 | 0.015 | 0.06 | 0.5 | 0.5 | 2 | 2 | 0.5 | 0.5 | 1 | 2 |  |
| CC[C@H](C)C[C@H](C)CCCCCCCCC(=O)N[C@H]1C[C@@H](O)[C@@H](NCCN)NC(=O)[C@@H]2[C@@H](O)CCN2C(=O)[C@H]([C@H](O)CCN)NC(=O)[C@H]([C@H](O)[C@@H](O)c2ccc(O)cc2)NC(=O)[C@@H]2C[C@@H](O)CN2C(=O)[C@H]([C@@H](C)O)NC1=O [Caspofungin, caspofungin] | 0.125 | 0.25 | 1 | 1 | 4 | 8 | 8 | 0.5 | 2 | 2 | 16 |  |
| CCCCCOc1ccc(-c2cc(-c3ccc(C(=O)N[C@H]4C[C@@H](O)[C@@H](O)NC(=O)[C@@H]5[C@@H](O)[C@@H](C)CN5C(=O)[C@H]([C@H](O)CC(N)=O)NC(=O)[C@H]([C@H](O)[C@@H](O)c5ccc(O)c(OS(=O)(=O)O)c5)NC(=O)[C@@H]5C[C@@H](O)CN5C(=O)[C@H]([C@@H](C)O)NC4=O)cc3)no2)cc1 [micafungin] (X1-[Orn(4R-OH,5R-OH)]T[Hyp][hTyr(3S-OH,4S-OH,3'-OSO3H)][Gln(3R-OH)][Pro(3S-OH,4S-Me)]; lactam 1-C) | 0.015 | 0.03 | 0.06 | 0.06 | 0.12 | 4 | 8 | 0.5 | 0.25 | 0.25 | 4 | time of peak drug intensity in liver tissues (MALDI-MSI) [1]: 1 h; drug signal in liver at 48 hours (MALDI-MSI) ([1]; no further dosing): no drug signals were detected; drug exposure within necrotic center of lesion (MALDI-MSI) ([1]; 24 hours): no detectable drug exposure; time at which drug signal first detectable in lesions (at lesion edge, MALDI-MSI) ([1]; liver): 6 h; drug level in liver lesions ([2]; 5 mg/kg once daily, 24 hours post third dose (steady-state)): under 5 μg/ml; concentration at 24 h ([2]; 5 mg/kg once daily, 24 hours post second dose, read-out: drug level in liver lesions): 3500 ng/mL; concentration at 24 h ([2]; 5 mg/kg once daily, 24 hours post third dose (steady-state), read-out: drug level in liver lesions): 4900 ng/mL; concentration at 24 h ([2]; 5 mg/kg once daily, steady-state after three doses, read-out: drug level in surrounding non-lesion liver tissues): 500 ng/mL; concentration at 6 h ([2]; ip, single IP dose 5 mg/kg, read-out: drug concentration in liver lesions): 4900 ng/mL; concentration at 6 h ([2]; ip, single IP dose 5 mg/kg, read-out: drug concentration in uninvolved surrounding liver tissue): 6500 ng/mL; concentration at 24 h ([2]; ip, single IP dose 5 mg/kg, 24 hours post-dose, read-out: drug concentration in liver lesions): 3400 ng/mL; concentration at 24 h ([2]; ip, single IP dose 5 mg/kg, 24 hours post-dose, read-out: drug concentration in uninvolved surrounding liver tissue): 1000 ng/mL; concentration at 6 h ([3]; 6 hours): 7000 to 10000 ng/mL; concentration at 24 h ([3]; 24 hours): ~2000 ng/mL; MIC (C. albicans): 0.03 µg/mL (≈ 0.0236 µM); MIC (C. glabrata BG2): 0.06 µg/mL (≈ 0.0472 µM); mutant prevention concentration (MPC) [4]: 16 µg/mL; mutant prevention concentration (MPC) [5]: 16 µg/mL |
